Results taken from ChEMBL document CHEMBL1201862, “PubChem BioAssay data set” (2004).
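Each compound was tested at five concentrations against cells in 96-well plates for 48 hours. GI50: concentration for 50% inhibition of growth.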 Calls of active or inactive are those of the source. Cut-off read from the data, not from the text of the source: active = GI50 up to about 1.1 µM and inactive = higher.

Columns and labels:
Assay in all cases: DTP human tumour cell line panel, 48 h
UO-31 = system: UO-31
SF-539 = system: SF-539
MDA-N = system: MDA-N
A498 = system: A498
HCT-15 = system: HCT-15
KM12 = system: KM12
MCF7 = system: MCF7
MDA-MB-231 = system: MDA-MB-231
HCC 2998 = system: HCC 2998
U-251 = system: U-251
SW-620 = system: SW-620
CCRF-CEM = system: CCRF-CEM
LOX IMVI = system: LOX IMVI
Malme-3M = system: Malme-3M
K562 = system: K562
SK-OV-3 = system: SK-OV-3
SF-295 = system: SF-295
NCI/ADR-RES = system: NCI/ADR-RES
MOLT-4 = system: MOLT-4
A549 = system: A549
Hs-578T = system: Hs-578T
HL-60 = system: HL-60
NCI-H460 = system: NCI-H460
COLO 205 = system: COLO 205
SNB-19 = system: SNB-19
OVCAR-3 = system: OVCAR-3
SNB-75 = system: SNB-75
SF-268 = system: SF-268
OVCAR-8 = system: OVCAR-8
SK-MEL-28 = system: SK-MEL-28
UACC-62 = system: UACC-62
EKVX = system: EKVX
NCI-H226 = system: NCI-H226
T47D = system: T47D
M14 = system: M14
RXF 393 = system: RXF 393
MDA-MB-435 = system: MDA-MB-435
UACC-257 = system: UACC-257
RPMI-8226 = system: RPMI-8226
786-0 = system: 786-0
HCT-116 = system: HCT-116
CAKI-1 = system: CAKI-1
DU-145 = system: DU-145
PC-3 = system: PC-3
SK-MEL-5 = system: SK-MEL-5
SR = system: SR
BT-549 = system: BT-549
TK-10 = system: TK-10
OVCAR-4 = system: OVCAR-4
NCI-H23 = system: NCI-H23
SK-MEL-2 = system: SK-MEL-2
HOP-92 = system: HOP-92
HT-29 = system: HT-29
IGROV-1 = system: IGROV-1
ACHN = system: ACHN
OVCAR-5 = system: OVCAR-5
HOP-62 = system: HOP-62
SN12C = system: SN12C
NCI-H522 = system: NCI-H522

Measured: GI50

CC1=CC(c2ccccc2)n2c(nc3cc4ccccc4cc32)N1 (centres undefined)
inactive: UO-31 > 100 µM | SF-539 > 100 µM | MDA-N > 100 µM | A498 > 100 µM | KM12 > 100 µM | MCF7 > 100 µM | MDA-MB-231 > 100 µM | HCC 2998 > 100 µM | U-251 > 100 µM | SW-620 > 100 µM | CCRF-CEM > 100 µM | LOX IMVI > 100 µM | Malme-3M > 100 µM | K562 > 100 µM | SK-OV-3 > 100 µM | SF-295 > 100 µM | NCI/ADR-RES > 100 µM | MOLT-4 > 100 µM | A549 > 100 µM | Hs-578T > 100 µM | HL-60 > 100 µM | NCI-H460 > 100 µM | COLO 205 > 100 µM | SNB-19 > 100 µM | OVCAR-3 > 100 µM | SNB-75 > 100 µM | SF-268 > 100 µM | OVCAR-8 > 100 µM | SK-MEL-28 > 100 µM | UACC-62 > 100 µM | EKVX > 100 µM | NCI-H226 > 100 µM | T47D > 100 µM | M14 > 100 µM | RXF 393 > 100 µM | MDA-MB-435 > 100 µM | UACC-257 > 100 µM | RPMI-8226 > 100 µM | 786-0 > 100 µM | HCT-116 > 100 µM | CAKI-1 > 100 µM | DU-145 > 100 µM | PC-3 > 100 µM | SK-MEL-5 > 100 µM | SR 90.4 µM | BT-549 > 100 µM | TK-10 > 100 µM | OVCAR-4 > 100 µM | NCI-H23 > 100 µM | SK-MEL-2 > 100 µM | HOP-92 > 100 µM | HT-29 > 100 µM | IGROV-1 > 100 µM | ACHN > 100 µM | OVCAR-5 > 100 µM
> 100 µM: HCT-15

CCOC(=O)c1ccc(/N=C2/C(=S)N(c3ccc(C(=O)OCC)cc3)C(=N)N2/N=C/c2ccccc2)cc1
27.3 µM: HCT-15
inactive: HOP-62 > 10 µM | UO-31 13.2 µM | SF-539 20.1 µM | MDA-N 12.1 µM | KM12 14.7 µM | MCF7 6.68 µM | MDA-MB-231 8.05 µM | HCC 2998 21.8 µM | U-251 > 10 µM | SW-620 1.51 µM | Malme-3M 17.6 µM | K562 3.7 µM | SK-OV-3 24.1 µM | SF-295 26.7 µM | NCI/ADR-RES 38.3 µM | A549 30 µM | Hs-578T 47 µM | NCI-H460 15.5 µM | COLO 205 5.06 µM | SNB-19 14.3 µM | OVCAR-3 13.1 µM | SF-268 16.2 µM | OVCAR-8 28.2 µM | SN12C 17.9 µM | SK-MEL-28 > 10 µM | UACC-62 5.7 µM | EKVX 27.1 µM | NCI-H226 15 µM | T47D 2.77 µM | M14 11.8 µM | RXF 393 5.13 µM | MDA-MB-435 > 10 µM | UACC-257 > 10 µM | RPMI-8226 4.13 µM | 786-0 11.3 µM | HCT-116 6.11 µM | CAKI-1 13.9 µM | DU-145 37.3 µM | PC-3 2.61 µM | SK-MEL-5 3.37 µM | SR 3.52 µM | BT-549 17.5 µM | TK-10 23.2 µM | NCI-H23 > 10 µM | SK-MEL-2 26.1 µM | HOP-92 15.9 µM | HT-29 18.4 µM | IGROV-1 30.6 µM | OVCAR-5 20 µM | NCI-H522 2.34 µM

O=[N+]([O-])c1ccccc1S(=O)(=O)N1CCCc2cc(Cl)ccc21
15.5 µM: HCT-15
inactive: HOP-62 60.3 µM | UO-31 30.6 µM | SF-539 32.4 µM | MDA-N 4.46 µM | A498 27.2 µM | KM12 18.5 µM | MCF7 28.2 µM | MDA-MB-231 > 56.5 µM | HCC 2998 38 µM | SW-620 17.1 µM | CCRF-CEM 8.91 µM | LOX IMVI 24.3 µM | Malme-3M > 100 µM | K562 3.46 µM | SK-OV-3 26.9 µM | SF-295 23.5 µM | NCI/ADR-RES 18 µM | MOLT-4 6.35 µM | A549 38.7 µM | Hs-578T 50.8 µM | HL-60 6.3 µM | NCI-H460 18.6 µM | COLO 205 38.7 µM | SNB-19 > 80.2 µM | OVCAR-3 26.2 µM | SNB-75 4.59 µM | SF-268 > 68.1 µM | OVCAR-8 88.9 µM | SN12C 82.4 µM | SK-MEL-28 61 µM | UACC-62 23.9 µM | EKVX 77.4 µM | NCI-H226 > 100 µM | T47D 15.3 µM | M14 46.5 µM | RXF 393 13.8 µM | MDA-MB-435 4.46 µM | UACC-257 12.6 µM | RPMI-8226 9.02 µM | 786-0 > 85.1 µM | HCT-116 16.2 µM | CAKI-1 > 100 µM | DU-145 > 90.6 µM | PC-3 18 µM | SK-MEL-5 19.6 µM | SR 5.75 µM | BT-549 8.91 µM | TK-10 > 100 µM | OVCAR-4 > 100 µM | NCI-H23 34 µM | SK-MEL-2 > 52.6 µM | HOP-92 21.5 µM | HT-29 9.35 µM | IGROV-1 39 µM | ACHN > 51.6 µM | OVCAR-5 > 93.1 µM
